{
  "source": "patent US9844214B2",
  "about": "“Alpha connexin C-terminal (ACT) peptides for use in transplant” (MUSC Foundation for Research Development, priority 2004, dated 2017)",
  "key": {"[1]": {"tested_on": "mouse cardiac endothelial cells", "assay": "In vitro cold storage and reperfusion injury model, endothelial cells", "type": "cell-based", "conditions": "for IL-8 secretion, endothelial cells (Elisa): UW solution supplemented with ACT1 peptide", "experimental": "These studies were conducted using a modification of the in vitro donor cold storage and reperfusion injury model (Casiraghi et al., 2009). Human umbilical vein endothelial cells (HUVECs) and mouse microvascular endothelial cells were grown to confluence on transwells and transendothelial resistance (TEER) was recorded. To model cold ischemia and reperfusion injury growth, media was removed from the cells and replaced with either ice cold UW solution or UW solution containing ACT1 peptide, and cultures were exposed to 6 h of hypoxia in a hypoxic chamber (Billups-Rothenberg, Del Mar, Calif.) at 4° C. Following hypoxic exposure, UW solution was removed, and to stimulate reperfusion, UW solution was replaced with fresh pre-warmed (37° C.) culture media, and cells were monitored for 24 h. TEER was measured at three time points post reperfusion as a marker of endothelial/epithelial cell death and dysfunction. A loss of […], as measured by TEER, across the cellular monolayer is associated with a loss of cell-cell communication (thus, gap junction and tight junction injury), cell injury, and a leaky endothelial cell lining. In vivo, this would translate as dysfunction of the cell layer and facilitate uncontrolled fluid trafficking, loss of vascular tone, reduced barrier function that would facilitate immune cell infiltration."}, "[2]": {"tested_on": "mouse tracheas", "assay": "Mouse trachea cold storage histology", "conditions": "6 h at 4° C. in PBS+ACT1 peptide vs PBS"}, "[3]": {"tested_on": "porcine kidney", "assay": "Porcine kidney model of cold ischemia (Cx43, nitrotyrosine, apoptosis staining)", "parameters": "species or system pig", "experimental": "These studies were conducted using kidneys procured from 2 standard criteria donor pigs. The organs were flushed via the aorta with preservation solution after 10 minutes of warm ischemia post-mortem. Biopsies were taken prior to treatment. The kidneys were then flushed with either cold Belzer's solution (control) or the same solution containing 100 μm ACT1 peptide, and stored in the respective solutions on ice for 24 h. Biopsies were taken at regular intervals and sections were stained for Cx43 and nitrotyrosine."}, "[4]": {"tested_on": "human respiratory epithelial cells", "assay": "In vitro cold storage and reperfusion injury model, epithelial cells", "type": "cell-based"}, "[5]": {"tested_on": "ARPE-19 cells", "assay": "VEGF-induced deterioration of trans-epithelial resistance (TER) in ARPE19 monolayers", "type": "cell-based, human", "conditions": "ARPE19 monolayers pre-treated with the ACT peptide", "description": "Thus, while not wishing to be bound by theory, stabilizing the tight junction proteins with the ACT peptide can prevent loss of tight-junction disintegration and thus damage to RPE/Bruch's membrane."}, "[6]": {"conditions": "mouse, in vivo", "method": "Three CD1 mice were anesthetized by IP injection of 0.2 mL Salazine/ketamine. 10 μL of 1 mM ACT1 peptide dissolved in a solution containing normal saline and 0.05% Brij-78 was gently dripped onto the corneal surface of both eyes and allowed to permeate for 20 or 40 min. 0.05% Brij-78 in normal saline was used on a control mouse. The mice were sacrificed in a CO2 chamber and cervically dislocated at 20, 40 min (the control mouse sacrificed at 20 min). The eyes were removed and rinsed in PBS. A small incision was made in the anterior chamber and the aqueous humor (˜10 μL) was transferred to tube and flash frozen in a dry ice ethanol bath. The total sample was dissolved in 2× samples loading buffer and loaded on a 10-20% Tris-Tricine gel. Gel was transferred to a PDVF membrane and stained using RBT Sigma anti-CX43 CT antibody (1:10000) and a goat anti-RBT AP secondary (1:15000) to reveal the ACT1 band at <10 kDa."}, "[7]": {"tested_on": "Balb/c donor hearts implanted into B6 recipients", "assay": "Mouse heterotopic heart allotransplantation model, 48 h post transplantation", "type": "in vivo", "experimental": "Heart allograft transplants were performed between Balb/c donors to B6 recipients. Balb/c donor hearts were removed, perfused with UW solution and then static cold stored in either UW solution alone or UW solution supplemented with 100 μM ACT1 peptide for 6 h at 4° C. Following storage, hearts were implanted into B6 recipients using an abdominal heart transplant procedure.\nHeterotopic abdominal heart transplants were performed between Balb/c and C57Bl/6 mice, as previously described (Gao et al., 2014). Donor hearts were cold preserved in UW or UW/ACT1 ([…]) for 6 h at 4° C. Following storage, hearts were then implanted and harvested at 48 h post transplantation to access the impact of ACT1 peptide post-treatment on IRI. Post transplant injury was assessed by analyses of serum Cardiac Troponin I and histological scoring of cardiac graft injury (FIG. 9) and inflammation; neutrophil and macrophage infiltration (FIG. 10), and pro-inflammatory cytokine."}, "[8]": {"tested_on": "HUVECs", "assay": "HUVEC cold preservation, hypoxia and reperfusion model", "type": "cell-based, human", "conditions": "48 h reperfusion", "experimental": "(§1) HUVECs were exposed to two experimental conditions to model organ cold storage and reperfusion injuries. Cells were either (A) exposed to 200 nM H2O2 to induce oxidative injury, or (B) exposed to 6 h of cold preservation in UW at 4° C. in hypoxic conditions in the presence or absence of 100 μM ACT1 peptide, followed by 48 h of reperfusion in normal media.\n(§2) HUVECs were exposed to either 18 h of cold storage in UW solution or UW/ACT1 followed by 48 h of reperfusion to model IRI in vitro, as previously described (Atkinson et al., 2013), or H2O2±ACT1 peptide to model oxidative stress. Efficacy was determined by TEER and IL-8 release."}, "[9]": {"tested_on": "HUVECs", "assay": "HUVEC H2O2 oxidative injury model", "type": "cell-based, human", "conditions": "200 nM H2O2, ±ACT1 peptide", "experimental": "as §1, §2"}, "[10]": {"conditions": "UW solution with 100 μM ACT1, 6 h hypoxia at 4° C., 4, 8 and 24 h post reperfusion, listed as ACT1 peptide"}, "[11]": {"conditions": "UW + 100 μM ACT1, 6 h at 4° C., 48 h post transplantation, n=6, listed as ACT1 peptide"}, "[12]": {"conditions": "UW/ACT1 (1000 μM) 6 h at 4° C., 48 h, n=3-6"}},
  "note": "“Also recorded” adds a separate entry of the source.",
  "data": [
    {"sequence": "RQPKIWFPNRRKPWKKRPRPDDLEI [ACT1]", "values": [
      {"measurement": "IL-8 secretion, endothelial cells (Elisa)", "setting": "[1]", "result": "significantly reduced pro-inflammatory cytokine (IL-8) release"},
      {"measurement": "IL-8 secretion, endothelial cells (Elisa)", "setting": "[1]; listed as ACT1 peptide", "result": "significant reduction in IL-8 secretion"},
      {"measurement": "TEER / cellular injury, endothelial cells", "setting": "[1]; [10]", "result": "significantly elevated TEER readings; also recorded: significantly reduced cellular injury"},
      {"measurement": "trachea histology", "setting": "[2]", "result": "preserved trachea histology"},
      {"measurement": "apoptosis (TUNEL and caspase)", "setting": "[3]; 100 μM ACT1, cold ischemia 24 h", "result": "minimizes mitochondrial oxidant production (nitrotyrosine) and apoptosis (TUNEL and caspase)"},
      {"measurement": "Cx43 staining (gap junctions)", "setting": "[3]; 100 μM ACT1 in cold Belzer's solution, up to 24 h cold ischemia, listed as ACT1 peptide", "result": "stabilizes gap junctions (Cx43); also recorded: Punctate Cx43 staining in the membrane (gap junctions) were preserved"},
      {"measurement": "IL-8 secretion, epithelial cells", "setting": "[4]; UW solution supplemented with ACT1 peptide", "result": "significant reduction in IL-8 secretion"},
      {"measurement": "TEER / cellular injury, epithelial cells", "setting": "[4]; [10]", "result": "significantly elevated TEER readings; also recorded: significantly reduced cellular injury"},
      {"measurement": "VEGF-induced deterioration of TER", "setting": "[5]", "result": "prevents VEGF-induced deterioration of TER"},
      {"measurement": "ACT1 in fluid from the posterior chamber (vitreous humor), Western blot", "setting": "[6]", "result": "Lower levels of ACT1 could also be detected"},
      {"measurement": "Histological injury score (FIG. 6A)", "setting": "[7]; [11]", "result": "significantly reduced cardiac injury"},
      {"measurement": "neutrophil infiltration (FIG. 6C)", "setting": "[7]; [11]", "result": "significantly reduced neutrophil"},
      {"measurement": "serum cardiac troponin I levels (FIG. 6B)", "setting": "[7]; [11]", "result": "reduced serum cardiac troponin I; also recorded: significantly reduced"},
      {"measurement": "macrophage (Mac-3) infiltration, immunohistochemistry (FIG. 10B)", "setting": "[7]; [12]", "result": "significantly reduces post transplant innate immune cell infiltration"},
      {"measurement": "neutrophil (Gr-1) infiltration, immunohistochemistry (FIG. 10A)", "setting": "[7]; [12]", "result": "significantly reduces post transplant innate immune cell infiltration"},
      {"measurement": "serum concentration of Cardiac troponin I (FIG. 9B)", "setting": "[7]; UW/ACT1 (1000 μM) 6 h at 4° C., 48 h post transplantation, n=3-6", "result": "significantly reduces post transplantation IRI injury"},
      {"measurement": "post transplantation IRI injury, histological grading (FIG. 9A)", "setting": "[7]; UW/ACT1 (1000 μM) 6 h at 4° C., 48 h post transplantation, n=3-6, listed as ACT1 peptide", "result": "significantly reduces ischemic reperfusion induced graft injury and inflammation; also recorded: significantly reduces post transplantation IRI injury"},
      {"measurement": "Trans-endothelial resistance after cold preservation, hypoxia and reperfusion", "setting": "[8]; 6 h cold preservation in UW at 4° C., hypoxic, 100 μM ACT1", "result": "significantly protects endothelial cells from H2O2 to induce oxidative stress, and cold preservation, hypoxic reperfusion injury"},
      {"measurement": "IL-8 secretion after cold preservation, hypoxia and reperfusion", "setting": "[8]; UW ± 100 μM ACT1", "result": "rendered less pro-inflammatory as compared to untreated cells"},
      {"measurement": "Trans-endothelial resistance after H2O2 oxidative injury", "setting": "[9]", "result": "significantly protects endothelial cells from H2O2 to induce oxidative stress"}
    ]}
  ]
}
